Laboratory results from PubChem BioAssay (NCI).
Where “and” joins values, the source holds several entries; their conditions need not be identical. Identical values can stand only once.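 Step 1: Grow cells in 96-well plates. Step 2: Expose to compound for 48 hours at 5 concentrations. Step 3: Interpolate endpoints linearly; if unreached, use highest concentration. GI50 marks 50% less growth. Definition used: TGI = concentration required for complete inhibition of growth.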

Tests used:
Assay in all cases: NCI tumour cell line growth inhibition, 48 h
[1] = system: BT-549 breast
[2] = system: HOP-92 NSCLC
[3] = system: IGROV1 ovarian
[4] = system: M14 melanoma
[5] = system: SF-539 CNS
[6] = system: SNB-19 CNS
[7] = system: T-47D breast
[8] = system: UACC-257 melanoma

Compound	GI50 [1]	GI50 [2]	TGI [2]	GI50 [3]	TGI [3]	GI50 [4]	TGI [4]	GI50 [5]	TGI [5]	GI50 [6]	TGI [6]	GI50 [7]	TGI [7]	GI50 [8]	TGI [8]	TGI [1]
Nc1nc(N)c2nc(CNc3ccc(C(=O)CC(CCC(=O)O)C(=O)O)cc3)cnc2n1 (stereo not drawn)	0.357 µM	> 100 µM	> 100 µM	0.465 µM	> 100 µM	0.202 µM	> 100 µM	0.176 µM	> 100 µM	0.627 µM	> 100 µM	> 100 µM	> 100 µM	> 25.5 µM	> 100 µM	–
COc1ccc(-c2coc3ncnc(N)c23)cc1	> 25 µM	> 14 µM	> 25 µM	> 25 µM	> 25 µM	> 25 µM	> 25 µM	> 25 µM	> 25 µM	> 25 µM	> 25 µM	> 25 µM	> 25 µM	> 25 µM	> 25 µM	> 25 µM
COc1cc(N2CCC(N3CCN(C)CC3)CC2)ccc1Nc1ncc(Cl)c(Nc2ccccc2P(C)(C)=O)n1	3.07 µM	0.4 µM	2.41 µM	0.216 µM	0.784 µM	2.12 µM	> 34 µM	2.1 µM	7.5 µM	3.09 µM	> 100 µM	> 100 µM	> 100 µM	38.8 µM	> 100 µM	13.5 µM
O=S(=O)(/C=C/C=C/S(=O)(=O)c1ccccc1)c1ccccc1	–	–	2.77 µM and 3.35 µM	1.39 µM	3.57 µM	0.801 µM	1.12 µM and 2.06 µM	2.14 µM	4.43 µM	–	31.2 µM	–	2.69 µM	2 µM	1.9 µM and 4.82 µM	3.15 µM
Cc1cc(Cl)ccc1Nc1sc(C(=O)c2cc3cc(Cl)ccc3o2)c(N)c1C#N	–	–	> 100 µM	–	> 100 µM	–	> 100 µM	–	> 66 µM	–	25.1 µM	–	> 100 µM	–	> 100 µM	> 100 µM
COc1ccc(C(=O)/C=C/c2cc3ccccc3[nH]c2=O)cc1	20.2 µM	17 µM	37.3 µM	28.6 µM	97.6 µM	19.3 µM	47.2 µM	18.7 µM	39.8 µM	23.2 µM	> 57.5 µM	18.8 µM	> 100 µM	25.5 µM	> 56.5 µM	> 42.9 µM
COc1cccc(-c2nn(-c3ccccc3)cc2-c2ccnc(NCCNS(=O)(=O)c3ccc(C(F)(F)F)cc3)c2)c1	1.95 µM	2.12 µM	6.83 µM	4.19 µM	> 100 µM	3.8 µM	> 100 µM	2.48 µM	6.28 µM	4.62 µM	> 100 µM	2.36 µM	7.55 µM	3.14 µM	15 µM	4.56 µM
CCCCCCN(CCCCCC)C(=N)c1ccnc2ccccc12	13.9 µM	1.39 µM	9.22 µM	2.83 µM	13.4 µM	1.89 µM	4.56 µM	5.12 µM	17.5 µM	11 µM	25.7 µM	3.04 µM	13.2 µM	2.37 µM	5.62 µM	27.3 µM
CC(=O)O[C@H](C[C@H](C(C)C)N(C)C(=O)[C@@H](NC(=O)[C@H]1CCCCN1C)C(C)C)c1nc(C(=O)N[C@@H](Cc2ccccc2)C[C@H](C)C(=O)O)c(C)s1	< 0.0025 µM	> 25 µM	> 25 µM	0.00302 µM	> 25 µM	< 0.0025 µM	> 25 µM	< 0.0025 µM	0.0187 µM	< 0.0025 µM	> 25 µM	–	–	> 25 µM	> 25 µM	0.0627 µM
O=c1ncc(-c2ccc(C(F)(F)F)cc2)c(NC2CCCCCC2)[nH]1	19.5 µM	–	–	19.1 µM	40.2 µM	20.4 µM	45.8 µM	15.2 µM	30.1 µM	24.2 µM	80.8 µM	17.2 µM	57.8 µM	23.1 µM	57.6 µM	39 µM
COc1ccc(OC)c(/C=C/c2nnc(Nc3ccc(Cl)cc3)o2)c1	–	–	–	7.69 µM	> 100 µM	20.7 µM	> 100 µM	11.8 µM	60.5 µM	13.8 µM	> 100 µM	2.54 µM	> 100 µM	21.3 µM	> 100 µM	–
CCN(Cc1ccc(F)cc1)c1ccc(CO)c(Cl)c1	9.27 µM	0.956 µM	13.1 µM	0.0776 µM	0.605 µM	12.5 µM	> 51.8 µM	15.1 µM	35.1 µM	19.6 µM	> 59.8 µM	0.0821 µM	0.472 µM	0.0835 µM	0.285 µM	29.7 µM
C[C@H]1CCC/C=C/[C@@H]2C[C@H](O)C[C@H]2[C@H](O)[C@H](S(=O)c2ccc(O)cc2)CC(=O)O1 (stereo partly drawn)	0.0472 µM	0.0529 µM	> 100 µM	0.147 µM	–	0.033 µM	> 100 µM	< 0.0157 µM	> 36.4 µM	0.187 µM	> 100 µM	0.2 µM	0.67 µM	0.0222 µM	–	> 100 µM
CS(=O)(=O)CCNCc1ccc(-c2ccc3ncnc(Nc4ccc(OCc5ccccc5)c(C(F)(F)F)c4)c3c2)o1	8.99 µM	4.9 µM	20.8 µM	6.36 µM	> 22.2 µM	5.26 µM	10.4 µM	4.69 µM	9.88 µM	4.79 µM	9.37 µM	6.76 µM	18.9 µM	4.74 µM	9.09 µM	> 25 µM
COc1cc2[nH]c(C(=O)c3cc(OC)c(OC)c(OC)c3)c(N)c2cc1C#CCO	–	0.0862 µM	90.7 µM	0.795 µM	68.8 µM	–	–	0.138 µM	0.491 µM	0.41 µM	> 100 µM	–	–	–	–	–
O=C1C2CC3C(CC2C(=O)[N]1[Sn]([c]1ccccc1)([c]1ccccc1)[c]1ccccc1)C1(Cl)C(Cl)=C(Cl)C3(Cl)C1(Cl)Cl (stereo not drawn)	0.185 µM	0.0529 µM	0.221 µM	0.115 µM	0.334 µM	0.15 µM	0.345 µM	0.179 µM	0.369 µM	0.163 µM	0.344 µM	0.0393 µM	0.22 µM	0.144 µM	0.324 µM	0.369 µM
Nc1ncc(-c2cnn(C3CCNCC3)c2)cc1-c1nc2ccccc2o1	2.44 µM	0.553 µM	2.05 µM	0.211 µM	0.891 µM	1.21 µM	2.54 µM	1.5 µM	2.83 µM	3.25 µM	10.6 µM	1.67 µM	4.88 µM	2.04 µM	3.94 µM	10.2 µM

Compound	GI50 [1]	GI50 [2]	TGI [2]	GI50 [3]	TGI [3]	GI50 [4]	TGI [4]	GI50 [5]	TGI [5]	GI50 [6]	TGI [6]	GI50 [7]	TGI [7]	GI50 [8]	TGI [8]	TGI [1]
C=C1C(=O)O[C@@H]2[C@H]1CC[C@H](C)[C@]1(O)CCC(=O)[C@@]21C	–	–	> 10 µM	–	> 10 µM	–	–	–	> 10 µM	–	> 10 µM	–	> 10 µM	–	–	–
CCOC(=O)[C@H](CSSc1ncnc2cc[nH]c12)NC(=O)[C@@H](C)c1ccc2cc(OC)ccc2c1	0.916 µM	0.39 µM	41 µM	5.08 µM	> 100 µM	0.13 µM	> 62.1 µM	0.478 µM	> 100 µM	44.4 µM	> 100 µM	0.0375 µM	> 100 µM	3.62 µM	> 100 µM	> 100 µM
COc1ccc(-c2cc(-c3ccc(Nc4nc(Nc5ccc(Cl)cc5)nc(Nc5ccc(Cl)cc5)n4)cc3)no2)cc1	17.2 µM	1.91 µM	6.26 µM	6.3 µM	42.8 µM	16.2 µM	53.7 µM	17.2 µM	57.8 µM	27.4 µM	> 100 µM	6.26 µM	> 100 µM	33.2 µM	> 100 µM	72 µM
Oc1c(Br)cc(Br)cc1CN(Cc1cc(Br)cc(Br)c1O)C1CCCCC1	–	–	> 100 µM	–	> 100 µM	–	> 100 µM	–	–	–	> 100 µM	–	> 100 µM	–	45.1 µM	90.9 µM
COc1cc2c(c(OC)c1OC)-c1ccc(OC)c(=O)cc1[C@@H](NC(=O)CCl)CC2	< 0.01 µM	–	7.2 µM	< 0.01 µM	21.9 µM	< 0.01 µM	< 0.01 µM	< 0.01 µM	23.7 µM	< 0.01 µM	28.7 µM	13.2 µM	> 59 µM	1.16 µM	31.8 µM	–
O=C1C(=O)c2cc([N+](=O)[O-])ccc2-c2ccccc21	1.83 µM	1.66 µM	3.12 µM	1.9 µM	3.54 µM	1.97 µM	3.5 µM	1.82 µM	3.24 µM	1.6 µM	3 µM	1.76 µM	3.77 µM	1.7 µM	3.13 µM	3.22 µM
COc1ccc(C(=S)c2cc(OC)c(OC)c(OC)c2)cc1OC(=O)CCl	< 0.0175 µM	0.55 µM	> 100 µM	0.0499 µM	> 100 µM	< 0.0125 µM	> 49.6 µM	< 0.011 µM	0.0499 µM	< 0.0207 µM	> 100 µM	22.1 µM	79.9 µM	> 100 µM	> 100 µM	0.922 µM
CCCCCCCCCCCCCCCCC1=CC(=O)C=C(OC)C1=O	–	–	> 100 µM	–	> 100 µM	–	> 100 µM	–	> 100 µM	–	> 100 µM	–	–	–	> 100 µM	–
O=c1oc2ccc(Cl)cc2c(=O)n1-c1ccc(Cl)cc1F	0.483 µM	0.143 µM	0.49 µM	0.237 µM	20.6 µM	0.578 µM	2.12 µM	0.462 µM	3.7 µM	0.391 µM	> 100 µM	0.36 µM	2.2 µM	0.496 µM	2.31 µM	2.44 µM
CCC1CCc2nc3sc(C(=O)Nc4ccccc4F)c(N)c3cc2C1 (stereo not drawn)	> 100 µM	4 µM	> 100 µM	> 100 µM	> 100 µM	–	–	–	> 100 µM	53.8 µM	> 100 µM	> 100 µM	> 100 µM	0.934 µM	> 100 µM	> 100 µM
CC(C)(Cl)CCC1=C(Cl)C(=O)c2ccccc2C1=O	2.35 µM	–	–	2.35 µM	5.22 µM	2.28 µM	5.51 µM	2.01 µM	4.58 µM	4.22 µM	17.1 µM	1.97 µM	5.52 µM	1.67 µM	3.2 µM	8.78 µM
C[C@H](c1ccc(Cl)cc1N)N1C(=O)c2cc(I)ccc2N(CCCN2CCN(C)CC2)C(=O)[C@@H]1c1ccc(Cl)cc1	–	–	–	1.29 µM	3.12 µM	1.96 µM	3.65 µM	–	–	1.52 µM	2.9 µM	–	–	1.24 µM	2.69 µM	–
O=c1[nH]cnc2c(C3OC(CO)C(O)C3O)[nH]nc12 (stereo not drawn)	–	–	–	–	> 100 µM	–	> 100 µM	–	> 100 µM	–	> 100 µM	–	> 100 µM	–	> 100 µM	> 100 µM
Nc1ccccc1NC(=O)c1ccc(CSc2nc(N3CCOCC3)c3cccn3n2)cc1	1.14 µM	0.15 µM	0.991 µM	1.18 µM	> 100 µM	0.756 µM	> 100 µM	0.773 µM	> 100 µM	2.67 µM	> 100 µM	0.498 µM	> 100 µM	0.549 µM	4.54 µM	4.59 µM
CCN1C(=O)N(CC)C2C1NN=c1s/c(=C3\C(=O)N(CCC(C)C)c4ccccc43)c(=O)n12 (stereo not drawn)	1.96 µM	1.47 µM	5.83 µM	1.23 µM	6.63 µM	–	–	1.11 µM	2.42 µM	2.39 µM	11.5 µM	–	–	3.72 µM	> 100 µM	6.33 µM
O=C(O)C1C2C=CC(O2)C1C(=O)Nc1ccccc1 (stereo not drawn)	–	–	–	–	> 100 µM	–	> 100 µM	–	–	–	> 100 µM	–	> 100 µM	–	> 100 µM	> 100 µM
C#C[C@@]1(O)[C@@H](CO)O[C@@H](n2cc(Cl)c3c(N)ncnc32)[C@@H]1O	–	0.454 µM	3.53 µM	0.145 µM	0.475 µM	0.177 µM	0.585 µM	0.324 µM	1.45 µM	0.021 µM	0.294 µM	0.0573 µM	0.489 µM	0.347 µM	> 79.9 µM	–
